Here are results for four compounds from patent publication US4272437A, “Antibacterial agents, and 4-thio azetidinone intermediates” (priority 1979, dated 1981).

≈ marks a conversion by molar mass, not a printed value. Structures can show the parent of a compound that is named as a salt. Where two headings read alike, the source gives them in different places. Some results are limits rather than exact numbers.

One experiment concerns K. pneumoniae A-15130. Briefly: MIC, tube dilution, Klebsiella pneumoniae A15130. It is filed as cell-based. Particulars: overnight 37° C.; for MIC: Klebsiella pneumoniae, A15130, K. pneumoniae A15130, read-out: Minimum Inhibitory Concentration (M.I.C.). An excerpt:
(§1) Representative compounds of the present invention were subjected to in vitro antibiotic screening against a variety of microorganisms.

In another experiment the test system is Ent. cloacae A-9656. Briefly: MIC, tube dilution, Enterobacter cloacae A9656. The class given is cell-based. Particulars: overnight 37° C.; for MIC: read-out: Minimum Inhibitory Concentration (M.I.C.).
From the text: as §1

The next experiment concerns Ps. aeruginosa A-9843A. In words: MIC, tube dilution, Pseudomonas aeruginosa A9843A. It is filed as cell-based. As to conditions: overnight 37° C.; for MIC: Pseudomonas aeruginosa, A9843A, read-out: Minimum Inhibitory Concentration (M.I.C.), Pseudomonas aeruginosa A9843A.
From the text: as §1

A further experiment relates to E. coli A-20341-1. Briefly: MIC, tube dilution, Escherichia coli A20341-1. The class given is cell-based.
From the text: as §1

The test system of experiment [1] is Klebsiella species A20468. In words: MIC, tube dilution, Klebsiella species A20468. As to conditions: Klebsiella species (K. pneumoniae) A20468, overnight 37° C.; for MIC: read-out: Minimum Inhibitory Concentration (M.I.C.). It is filed as cell-based.
From the text: as §1

Another experiment concerns Ent. cloacae A-9659. In words: MIC, tube dilution, Enterobacter cloacae A9659. It is filed as cell-based. Particulars: overnight 37° C.; for MIC: Enterobacter cloacae, A9659, Enterobacter cloacae A9659, read-out: Minimum Inhibitory Concentration (M.I.C.).
From the text: as §1

For experiment [2], the system named is Staph. aureus (Meth-Res) A-15097. Briefly: MIC, tube dilution, Staphylococcus aureus A15097 (Meth-Res). Particulars: overnight 37° C.; for MIC: Staphylococcus aureus. It is filed as cell-based.
From the text: as §1

The subject of another experiment is Pr. mirabilis A-9900. Briefly: MIC, tube dilution, Proteus mirabilis A9900. The class given is cell-based. Particulars: overnight 37° C.; for MIC: Proteus mirabilis, A9900, Proteus mirabilis A9900, read-out: Minimum Inhibitory Concentration (M.I.C.).
From the text: as §1

In the next experiment the test system is Staph. aureus A-9537. In words: MIC, tube dilution, Staphylococcus aureus A9537. Particulars: overnight 37° C., Nutrient Broth; for MIC: Staphylococcus aureus, A9537, Staph. aureus A9537, read-out: Minimum Inhibitory Concentration (M.I.C.). It is filed as cell-based.
From the text: as §1

In a further experiment the test system is Str. pyogenes A-9604. Briefly: MIC, tube dilution, Streptococcus pyogenes A9604. The class given is cell-based. Particulars: overnight 37° C., Nutrient Broth; for MIC: Streptococcus pyogenes, A9604, Str. pyogenes A9604, read-out: Minimum Inhibitory Concentration (M.I.C.).
From the text: as §1

The next experiment relates to Proteus vulgaris A9555. Briefly: MIC, tube dilution, Proteus vulgaris (mirabilis) A9555. The class given is cell-based. As to conditions: overnight 37° C.; for MIC: read-out: Minimum Inhibitory Concentration (M.I.C.).
From the text: as §1

A further experiment has as its system Str. pneumoniae A-9585. Briefly: MIC, tube dilution, Streptococcus pneumoniae A9585. It is filed as cell-based. Particulars: overnight 37° C., Nutrient Broth; for MIC: Streptococcus pneumoniae, A9585, Str. pneumoniae A9585, read-out: Minimum Inhibitory Concentration (M.I.C.).
From the text: as §1

The next experiment has as its system Proteus rettgeri A21203. Briefly: MIC, tube dilution, Proteus rettgeri A21203. Particulars: overnight 37° C.; for MIC: Providencia rettgeri, read-out: Minimum Inhibitory Concentration (M.I.C.). The class given is cell-based.
From the text: as §1

The test system of a further experiment is Ser. marcescens A-20019. In words: MIC, tube dilution, Serratia marcescens A20019. It is filed as cell-based. As to conditions: overnight 37° C.; for MIC: Serratia marcescens, A20019, Serratia marcescens A20019, read-out: Minimum Inhibitory Concentration (M.I.C.).
From the text: as §1

In the next experiment the test system is Str. faecalis A-20688. In words: MIC, tube dilution, Streptococcus faecalis A20688. The class given is cell-based. As to conditions: overnight 37° C.; for MIC: Enterococcus faecalis, A20688, Str. faecalis A20688, read-out: Minimum Inhibitory Concentration (M.I.C.).
From the text: as §1

The subject of experiment [3] is Staph. aureus A-9537 and 50% serum. In words: MIC, tube dilution, Staph. aureus A9537 + 50% serum. It is filed as cell-based, Staphylococcus aureus. Particulars: overnight 37° C.; for MIC: Staphylococcus aureus, read-out: Minimum Inhibitory Concentration (M.I.C.).
From the text: as §1

In another experiment the test system is Ps. aeruginosa A-21213. In words: MIC, tube dilution, Pseudomonas aeruginosa A21213. The class given is cell-based. As to conditions: Pseudomonas aeruginosa A21213, overnight 37° C.; for MIC: read-out: Minimum Inhibitory Concentration (M.I.C.).
From the text: as §1

For a further experiment, the system named is Pr. morganii A-15153. Briefly: MIC, tube dilution, Proteus morganii A15153. The class given is cell-based. As to conditions: overnight 37° C.; for MIC: Morganella morganii, A15153, Proteus morganii A15153, read-out: Minimum Inhibitory Concentration (M.I.C.).
From the text: as §1

Experiment [4] has as its system Staph. aureus (Pen-Res) A-9606. In words: MIC, tube dilution, Staphylococcus aureus A9606 (Pen-Res). The class given is cell-based. Particulars: overnight 37° C.; for MIC: Staphylococcus aureus.
From the text: as §1

Another experiment has as its system E. coli A-15119. Briefly: MIC, tube dilution, Escherichia coli A15119. It is filed as cell-based. As to conditions: overnight 37° C.; for MIC: Escherichia coli, A15119, E. coli A15119, read-out: Minimum Inhibitory Concentration (M.I.C.).
From the text: as §1

Setting [5] is: Escherichia coli, A203411; E. coli A20341-1; overnight 37° C.; read-out: Minimum Inhibitory Concentration (M.I.C.).
The mark [6] stands for this setting: Staph. aureus A15097 (Meth-Res), read-out: Minimum Inhibitory Concentration (M.I.C.).
Where [7] appears, read: A21203, Proteus rettgeri A21203.
Setting [8] is: Staph. aureus A9606 (Pen-Res), read-out: Minimum Inhibitory Concentration (M.I.C.).

With `CC1=C(C(=O)O)N2C(=O)[C@H](C(C)(C)O)[C@H]2S1` (relative stereo) [Example 32, trans 6-(2'-Hydroxy-2'-propyl)-2-methylpenem-3-carboxylic Acid], the MIC in the experiment with K. pneumoniae A-15130 is 125 µg/mL (≈ 514 µM); in the experiment on Ent. cloacae A-9656 (Enterobacter cloacae A9656) it was 125 µg/mL (≈ 514 µM); in the experiment with Ps. aeruginosa A-9843A it was 125 µg/mL (≈ 514 µM); in the experiment on E. coli A-20341-1 (setting [5]) it was more than 125 µg/mL; in [1] it was more than 125 µg/mL; in the experiment with Ent. cloacae A-9659, 125 µg/mL (≈ 514 µM). Moreover, the MIC was determined as 63 µg/mL (≈ 259 µM) in experiment [2] (setting [6]); 63 µg/mL (≈ 259 µM) in the experiment with Pr. mirabilis A-9900; 8 µg/mL (≈ 32.9 µM) in the experiment with Staph. aureus A-9537; 8 µg/mL (≈ 32.9 µM) in the experiment on Str. pyogenes A-9604; 125 µg/mL (≈ 514 µM) in the experiment on Proteus vulgaris A9555; 0.25 µg/mL (≈ 1.03 µM) with Str. pneumoniae A-9585. The MIC in the experiment with Proteus rettgeri A21203 (setting [7]) was 63 µg/mL (≈ 259 µM); in the experiment with Ser. marcescens A-20019, 63 µg/mL (≈ 259 µM); in the experiment on Str. faecalis A-20688 it was more than 125 µg/mL; in [3] it was 32 µg/mL; with Ps. aeruginosa A-21213 it was 125 µg/mL (≈ 514 µM); in the experiment with Pr. morganii A-15153, 125 µg/mL (≈ 514 µM). In addition, the MIC amounted to 16 µg/mL (≈ 65.8 µM) in experiment [4] (setting [8]) and 63 µg/mL (≈ 259 µM) with E. coli A-15119.

As for `COP(=O)(CCC1=C(C(=O)O)N2C(=O)CC2S1)OC` (centres unmarked) [Example 57], the “Minimum Inhibitory Concentration (M.I.C.)” value in the experiment with K. pneumoniae A-15130 (K. pneumoniae A15130) was 125 µg/mL; in the experiment with Ent. cloacae A-9656 (Enterobacter cloacae A9656) it was 63 µg/mL; with Ps. aeruginosa A-9843A (Pseudomonas aeruginosa A9843A) it was 125 µg/mL; in the experiment with E. coli A-20341-1 (E. coli A20341-1; overnight 37° C.), more than 125 µg/mL; in experiment [1], more than 125 µg/mL; in the experiment with Ent. cloacae A-9659 (Enterobacter cloacae A9659) it was 125 µg/mL. The “Minimum Inhibitory Concentration (M.I.C.)” value is more than 125 µg/mL in experiment [2] (Staph. aureus A15097 (Meth-Res)); 8 µg/mL in the experiment with Pr. mirabilis A-9900 (Proteus mirabilis A9900); 1 µg/mL in the experiment with Staph. aureus A-9537 (Staph. aureus A9537); “.13 µg/mL” in the experiment with Str. pyogenes A-9604 (Str. pyogenes A9604); 63 µg/mL in the experiment on Proteus vulgaris A9555; “.06 µg/mL” in the experiment with Str. pneumoniae A-9585 (Str. pneumoniae A9585). In addition, the “Minimum Inhibitory Concentration (M.I.C.)” value in the experiment on Proteus rettgeri A21203 (Proteus rettgeri A21203) was 16 µg/mL; in the experiment on Ser. marcescens A-20019 (Serratia marcescens A20019), 63 µg/mL; in the experiment with Str. faecalis A-20688 (Str. faecalis A20688) it was 125 µg/mL; in experiment [3], 16 µg/mL; in the experiment with Ps. aeruginosa A-21213, 125 µg/mL; with Pr. morganii A-15153 (Proteus morganii A15153), 32 µg/mL. In addition, the “Minimum Inhibitory Concentration (M.I.C.)” value worked out at 125 µg/mL in [4] (Staph. aureus A9606 (Pen-Res)) and 16 µg/mL in the experiment with E. coli A-15119 (E. coli A15119).

With `CC1=C(C(=O)O)N2C(=O)[C@@H]([C@@H](C)O)[C@H]2S1` (relative stereo) [Example 34, cis 6-(1'-Hydroxy-1'-ethyl)-2-methylpenem-3-carboxylic Acid, Sodium Salt (isomer "D")], the MIC with K. pneumoniae A-15130 came out at 32 µg/mL; in the experiment with Ent. cloacae A-9656 (Enterobacter cloacae, A9656, Enterobacter cloacae A9656), 63 µg/mL; in the experiment with Ps. aeruginosa A-9843A, 125 µg/mL; in the experiment on E. coli A-20341-1 (Escherichia coli, A203411, E. coli A20341-1; overnight 37° C.; read-out: Minimum Inhibitory Concentration (M.I.C.)), 16 µg/mL; in [1] it was 125 µg/mL; with Ent. cloacae A-9659, 32 µg/mL. Also, the MIC was 16 µg/mL in experiment [2] (setting [6]); 16 µg/mL with Pr. mirabilis A-9900; 4 µg/mL in the experiment on Staph. aureus A-9537; 2 µg/mL in the experiment on Str. pyogenes A-9604; 16 µg/mL in the experiment with Proteus vulgaris A9555; 0.25 µg/mL in the experiment on Str. pneumoniae A-9585. For the same compound, the MIC in the experiment on Proteus rettgeri A21203 (setting [7]) turned out to be 32 µg/mL; in the experiment on Ser. marcescens A-20019, 32 µg/mL; with Str. faecalis A-20688, 125 µg/mL; in experiment [3] it was 63 µg/mL; in the experiment on Ps. aeruginosa A-21213, 125 µg/mL; in the experiment with Pr. morganii A-15153 it was 32 µg/mL. For the same compound, the MIC (in experiment [4] (setting [8]); in the experiment with E. coli A-15119) was 4 µg/mL each time.

For `CSc1nnc(C2=C(C(=O)O)N3C(=O)CC3S2)o1` (centres unmarked) [Example 56, Sodium 3-(5-Methylthio-1,3,4-oxadiazol-2-yl)penem-3-carboxylate], the MIC in the experiment on K. pneumoniae A-15130 is more than 125 µg/mL; in the experiment with Ent. cloacae A-9656 (Enterobacter cloacae A9656) it was more than 125 µg/mL; with Ps. aeruginosa A-9843A, 125 µg/mL; in the experiment on E. coli A-20341-1 (setting [5]) it was more than 125 µg/mL; in experiment [1], more than 125 µg/mL; in the experiment with Ent. cloacae A-9659, more than 125 µg/mL. The MIC in experiment [2] (read-out: Minimum Inhibitory Concentration (M.I.C.), Staph. aureus A15097 (Meth-Res)) was more than 125 µg/mL; with Pr. mirabilis A-9900, more than 125 µg/mL; in the experiment on Staph. aureus A-9537 it was more than 125 µg/mL; in the experiment with Str. pyogenes A-9604 it was 125 µg/mL; in the experiment with Proteus vulgaris A9555, more than 125 µg/mL; in the experiment on Str. pneumoniae A-9585, 125 µg/mL. For the same compound, the MIC was more than 125 µg/mL in the experiment on Proteus rettgeri A21203 (Proteus rettgeri A21203); more than 125 µg/mL in the experiment with Ser. marcescens A-20019; more than 125 µg/mL with Str. faecalis A-20688; more than 63 µg/mL in experiment [3]; 125 µg/mL in the experiment on Ps. aeruginosa A-21213; more than 125 µg/mL with Pr. morganii A-15153. The MIC in experiment [4] (read-out: Minimum Inhibitory Concentration (M.I.C.), Staph. aureus A9606 (Pen-Res)) is more than 125 µg/mL; in the experiment on E. coli A-15119, more than 125 µg/mL.
